Data on three compounds can be found in patent US6344439B1, “Agents for promoting bone formation” (priority 1995, dated 2002).

Read-outs that look alike come from different tables or passages of the source.

In series [1] the test system is osteoblasts of rat fetal calvaria. The class given is cell-based. The conditions noted are these: for Alkaline phosphatase activity: mean ± SD n=4; for Effect on alkaline phosphatase activity (in words): at 10^−8M.
For series [2] the test system is unchanged. Particulars: for Calcified area / No. of bone tuberculum: mean ± SD n=4; for No. of bone tuberculum: Tables 1-2 experiment (non-treated 146.5 ± 10.9).
Setting [3] is: 10^−8M, Table 1 experiment (non-treated 0.044 ± 0.014).
The mark [4] stands for this setting: 10^−8M, Table 3 experiment (non-treated 0.084 ± 0.008).
Where [5] appears, read: 10^−8M, Table 3 experiment (non-treated 4.46 ± 0.83).

`C[C@@H]1C[C@H]2[C@@H]3CCC4=CC(=O)C=C[C@]4(C)[C@@]3(F)[C@@H](O)C[C@]2(C)[C@@]1(O)C(=O)CO` [Dexamethasone, reference compound]: the Alkaline phosphatase activity stood at 0.181 ± 0.018 μM/min/well in series [1] (setting [3]) and 0.143 ± 0.015 μM/min/well in series [1] (setting [4]). Further, the Calcified area in series [2] (setting [5]) worked out at 13.82 ± 1.20 mm^2/well; in series [2] (10^−8M, Table 4 experiment (non-treated 2.56 ± 0.11)), 12.17 ± 1.05 mm^2/well. Further, the “No. of bone tuberculum” value in series [2] (10^−8M) turned out to be 307.3 ± 34.1 per well.

Turning to “Gly-Arg-Gly-Asp-Ser (GRGDS) [reference compound]”, the results for the “No. of bone tuberculum” value in series [2] (10^−4M) and in series [2] (10^−6M) were 168.3 ± 17.1 per well and 166.5 ± 10.6 per well, respectively. The “Effect on calcification (in words)” value in series [2] (at 10^−4M) is “completely prevent”; in series [2] (at 10^−6M) it was “promote”. The “Effect on the number of bone tuberculum (in words)” value in series [2] (at 10^−6M and 10^−4M ("these concentrations")) is “tendency to be increased”.

In the case of Kistrin, the Alkaline phosphatase activity is 0.085 ± 0.009 μM/min/well in series [1] (10^−5M, Table 3 experiment (non-treated 0.084 ± 0.008)); 0.040 ± 0.003 μM/min/well in series [1] (10^−6M, Table 1 experiment (non-treated 0.044 ± 0.014)); 0.119 ± 0.008 μM/min/well in series [1] (10^−6M, Table 3 experiment (non-treated 0.084 ± 0.008)); 0.051 ± 0.007 μM/min/well in series [1] (10^−7M, Table 1 experiment (non-treated 0.044 ± 0.014)); 0.133 ± 0.006 μM/min/well in series [1] (10^−7M, Table 3 experiment (non-treated 0.084 ± 0.008)); 0.067 ± 0.005 μM/min/well in series [1] (setting [3]). Also, the Alkaline phosphatase activity in series [1] (setting [4]) was determined as 0.126 ± 0.006 μM/min/well; in series [1] (10^−9M, Table 1 experiment (non-treated 0.044 ± 0.014)), 0.051 ± 0.008 μM/min/well. Moreover, the “Effect on alkaline phosphatase activity (in words)” value in series [1] is “promote”; in series [1] (listed as kistrin) it was “Promoted”. In addition, the Calcified area in series [2] (10^−5M, Table 3 experiment (non-treated 4.46 ± 0.83)) is 4.54 ± 0.88 mm^2/well; in series [2] (10^−6M, Table 3 experiment (non-treated 4.46 ± 0.83)), 7.93 ± 1.37 mm^2/well; in series [2] (10^−7M, Table 3 experiment (non-treated 4.46 ± 0.83)), 11.25 ± 1.04 mm^2/well; in series [2] (setting [5]), 9.87 ± 1.04 mm^2/well. Also, the “No. of bone tuberculum” value is on record as 147.8 ± 14.2 per well in series [2] (10^−6M), 189.5 ± 16.3 per well in series [2] (10^−7M), 161.8 ± 19.2 per well in series [2] (10^−8M) and 153.8 ± 12.3 per well in series [2] (10^−9M). In addition, the “Effect on calcification (in words)” value in series [2] (at 10^−6M) is recorded as “prevented completely”; in series [2] (at 10^−7 and 10^−8M), “promote”. Besides, the “Effect on the number of bone tuberculum (in words)” value was “not observed to affect” in series [2] (at 10^−6M); “promote” in series [2] (at 10^−7 and 10^−8M).
